For 26 compounds, Ki results are on record in ChEMBL document CHEMBL1944554, “Structure-activity relationships for the interaction of 5,10-dihydroindeno[1,2-b]indole derivatives with human and bovine carbonic anhydrase isoforms I, II, III, IV and VI” (Eur J Med Chem, 2012).

The structures appear in SMILES notation.

In one experiment the target is T1, Carbonic anhydrase 3 (Bos taurus, UniProt Q3SZX4).
T1 sequence (Q3SZX4 whole entry): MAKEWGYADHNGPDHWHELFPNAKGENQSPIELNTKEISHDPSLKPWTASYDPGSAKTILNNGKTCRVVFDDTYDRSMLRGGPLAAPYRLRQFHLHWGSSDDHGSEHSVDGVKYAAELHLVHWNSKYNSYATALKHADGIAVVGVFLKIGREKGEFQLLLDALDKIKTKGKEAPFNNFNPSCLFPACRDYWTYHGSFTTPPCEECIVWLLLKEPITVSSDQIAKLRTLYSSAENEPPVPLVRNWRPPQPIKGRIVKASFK
In words: Inhibition of bovine carbonic anhydrase 3 using 4-nitrophenylacetate as substrate after 3 mins using spectrophotometry by Lineweaver-Burk plot analysis.

The target in the next experiment is Carbonic anhydrase 4 (Homo sapiens, UniProt P22748). In words: Inhibition of human carbonic anhydrase 4 using 4-nitrophenylacetate as substrate after 3 mins using spectrophotometry by Lineweaver-Burk plot analysis.
Carbonic anhydrase 4, sequence (P22748 whole entry): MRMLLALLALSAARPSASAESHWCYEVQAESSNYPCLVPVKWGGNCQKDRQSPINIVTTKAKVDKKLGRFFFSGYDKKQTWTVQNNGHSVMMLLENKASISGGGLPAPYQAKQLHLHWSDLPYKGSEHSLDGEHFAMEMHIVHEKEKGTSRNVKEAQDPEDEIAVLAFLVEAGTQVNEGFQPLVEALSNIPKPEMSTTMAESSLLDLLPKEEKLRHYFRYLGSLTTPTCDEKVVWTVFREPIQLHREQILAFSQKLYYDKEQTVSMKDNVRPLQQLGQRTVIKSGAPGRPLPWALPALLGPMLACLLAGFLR
The next experiment deals with Carbonic anhydrase 1 (Homo sapiens, UniProt P00915). In words: Inhibition of human carbonic anhydrase 1 using 4-nitrophenylacetate as substrate after 3 mins using spectrophotometry by Lineweaver-Burk plot analysis.
Carbonic anhydrase 1, sequence (P00915 whole entry): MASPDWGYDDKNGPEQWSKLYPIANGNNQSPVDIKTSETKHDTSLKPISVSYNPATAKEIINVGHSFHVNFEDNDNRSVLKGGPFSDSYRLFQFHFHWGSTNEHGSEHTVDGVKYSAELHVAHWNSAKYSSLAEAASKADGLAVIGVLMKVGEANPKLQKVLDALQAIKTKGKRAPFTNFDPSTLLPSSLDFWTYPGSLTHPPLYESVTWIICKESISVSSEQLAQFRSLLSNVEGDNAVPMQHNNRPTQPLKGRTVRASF
The next experiment has as its target Carbonic anhydrase 6 (Homo sapiens, UniProt P23280). In words: Inhibition of human carbonic anhydrase 6 using 4-nitrophenylacetate as substrate after 3 mins using spectrophotometry by Lineweaver-Burk plot analysis.
Another experiment concerns the target Carbonic anhydrase 2 (Homo sapiens, UniProt P00918). Nature of the experiment: Inhibition of human carbonic anhydrase 2 using 4-nitrophenylacetate as substrate after 3 mins using spectrophotometry by Lineweaver-Burk plot analysis.

Carbonic anhydrase 6, sequence (P23280 whole entry): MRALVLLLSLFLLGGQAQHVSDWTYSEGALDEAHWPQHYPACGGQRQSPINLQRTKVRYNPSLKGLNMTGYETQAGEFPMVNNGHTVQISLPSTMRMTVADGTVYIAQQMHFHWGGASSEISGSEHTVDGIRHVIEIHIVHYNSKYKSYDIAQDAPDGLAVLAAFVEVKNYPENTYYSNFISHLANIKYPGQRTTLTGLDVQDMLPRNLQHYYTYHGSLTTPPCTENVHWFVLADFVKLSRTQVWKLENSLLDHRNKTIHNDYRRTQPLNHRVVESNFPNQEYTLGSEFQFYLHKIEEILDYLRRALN

A word on the Ki: it is a dissociation constant, usually derived from enzyme kinetics or from competition with a known ligand. High values mean weaker binding, low ones tighter binding. As to `Clc1ccc2c(c1)Cc1c-2[nH]c2ccccc12`, the Ki on Carbonic anhydrase 3 stood at 8.72 µM.

As for `COc1ccc2c(c1OC)Cc1c-2[nH]c2ccccc12`, the affinity on Carbonic anhydrase 3, expressed as Ki, was 10.3 µM.

At Carbonic anhydrase 3, `CCOc1ccc2nc(S(N)(=O)=O)sc2c1` [ETHOXZOLAMIDE] yielded a Ki of 9.44 µM.

Compound `Fc1ccc2c(c1)Cc1c-2[nH]c2ccccc12` had an inhibition constant (Ki) on Carbonic anhydrase 3 of 8.63 µM.

As to `Oc1ccccc1O` [CATECHOL], affinity at Carbonic anhydrase 3 was put at a Ki of 3.48 µM.

`Oc1ccc(O)c2c1Cc1c-2[nH]c2ccccc12` gave a Ki on Carbonic anhydrase 3 of 4.34 µM.

Regarding `COc1ccc(OC)c2c1Cc1c-2[nH]c2ccccc12`, the inhibition constant (Ki) on Carbonic anhydrase 3 is 11.2 µM.

In turn, `Brc1ccc2c(c1)Cc1c-2[nH]c2ccccc12` yielded a Ki at Carbonic anhydrase 3 of 8.51 µM.

On Carbonic anhydrase 3, `Oc1cccc2c1Cc1c-2[nH]c2ccccc12` showed an inhibition constant (Ki) of 8.84 µM.

For `NS(=O)(=O)Cc1noc2ccccc12` [ZONISAMIDE], on Carbonic anhydrase 3, the inhibitory constant (Ki) is 8.51 µM.

Turning to `COc1cc2c(cc1OC)-c1[nH]c3ccccc3c1C2`, the inhibitory constant (Ki) on Carbonic anhydrase 3 worked out at 15.8 µM.

As to `COc1ccc2c(c1)Cc1c-2[nH]c2ccccc12`, affinity on Carbonic anhydrase 3 was put at a Ki of 14.9 µM.

The compound `c1ccc2c(c1)Cc1c-2[nH]c2ccccc12` displayed a Ki on Carbonic anhydrase 3 of 17.8 µM.

As for `COc1cccc2c1Cc1c-2[nH]c2ccccc12`, at Carbonic anhydrase 3, affinity was put at a Ki of 16.3 µM.

As for `C[C@]12CC[C@@H]3c4ccc(OS(N)(=O)=O)cc4CC[C@H]3[C@@H]1CCC2=O` [EMATE], the Ki at Carbonic anhydrase 4 was found to be 1.04 µM; on Carbonic anhydrase 3, 12.4 µM; on Carbonic anhydrase 1 it was 12.3 µM; on Carbonic anhydrase 6, 1.86 µM.

In the case of `Oc1cc2c(cc1O)-c1[nH]c3ccccc3c1C2`, the affinity at Carbonic anhydrase 3, expressed as Ki, was 5.17 µM.

For `COc1ccc2c(c1)-c1[nH]c3ccccc3c1C2`, affinity on Carbonic anhydrase 3 was put at a Ki of 15.6 µM.

With `Oc1ccc2c(c1)-c1[nH]c3ccccc3c1C2`, affinity at Carbonic anhydrase 3 was put at a Ki of 9.42 µM.

On Carbonic anhydrase 3, `Oc1ccc2c(c1O)Cc1c-2[nH]c2ccccc12` returned a Ki of 2.13 µM.

`COc1cc2c(c(OC)c1)-c1[nH]c3ccccc3c1C2` showed a Ki on Carbonic anhydrase 3 of 14.3 µM.

In turn, `Oc1cc(O)c2c(c1)Cc1c-2[nH]c2ccccc12` came in with an inhibition constant (Ki) at Carbonic anhydrase 3 of 4.63 µM.

At Carbonic anhydrase 3, `Oc1ccc2c(c1)Cc1c-2[nH]c2ccccc12` had an inhibition constant Ki of 9.08 µM.

At Carbonic anhydrase 3, `Oc1cccc2c1-c1[nH]c3ccccc3c1C2` returned a Ki of 9.62 µM.

In turn, `COc1ccccc1OC` [1,2-DIMETHOXYBENZENE] returned a Ki at Carbonic anhydrase 3 of 4.24 µM.

With `c1ccc2c3c([nH]c2c1)-c1cc2c(cc1C3)OCO2`, on Carbonic anhydrase 3, the affinity, expressed as Ki, was 12.7 µM.

For the compound `c1ccc2[nH]ccc2c1` [INDOLE], the Ki turned out to be 2.33 µM at Carbonic anhydrase 4; 17.6 µM on Carbonic anhydrase 3; 27.4 µM on Carbonic anhydrase 1; 32.5 µM at Carbonic anhydrase 2; 3.63 µM on Carbonic anhydrase 6.
